# Assay results: patent US5869659A, “Heteroatom-containing cyclopentanopyridyl-oxazolidinones” (Bayer Aktiengesellschaft, priority 1996, dated 1999)
# Where two headings read alike, the source gives them in different places.
# Assays:
# Format in all cases: cell-based
# Staph. 25701 = test: MIC by serial dilution on Iso-Sensitest agar; conditions: 37° C., about 20 hours
# Method: (§1) The minimum inhibitory concentrations (MICs) were determined by serial dilution tests on Iso-Sensitest agar (Oxoid). For each test substance, a number of agar plates were prepared which contained decreasing concentrations of the active compound. The agar plates were inoculates using a multipoint inoculator (Denley). For inoculation, overnight cultures of the pathogenic organisms were used which had previously been diluted such that each inoculation point contained about 10^4 colony-forming particles. The inoculated agar plates were incubated at 37° C., and the microorganism growth was read off after about 20 hours. The MICs (μg/ml) indicates the lowest active compound concentration at which no growth could be detected using the naked eye.
# Psdm. Bonn = test: MIC by serial dilution on Iso-Sensitest agar
# Method: as §1
# Staph. 48N = test: MIC by serial dilution on Iso-Sensitest agar; conditions: 37° C., about 20 hours
# Method: as §1
# Staph. 9TV = test: MIC by serial dilution on Iso-Sensitest agar
# Method: as §1
# E. coli Neumann = test: MIC by serial dilution on Iso-Sensitest agar; conditions: Escherichia coli
# Method: as §1
# Klebs. 57 USA = test: MIC by serial dilution on Iso-Sensitest agar
# Method: as §1
# Staph. 133 = test: MIC by serial dilution on Iso-Sensitest agar; conditions: 37° C., about 20 hours
# Method: as §1
# [1] = system: Mycobacterium smegmatis DSM 43465; test: MIC for rapidly growing mycobacteria by broth microdilution; conditions: Mycolicibacterium smegmatis, DSM43465
# Method: (§2) For rapidly growing mycobacteria, the MIC determination was carried out following the method of broth microdilution described by Swenson [cf. J. M. Swenson, C. Thornberry, U. A. Silcox, Rapidly growing mycobacteria. Testing of suceptibility to 34 antimicrobial agents by broth microdilution. Antimicrobial Agents and Chemotherapy Vol. 22, 186-192 (1982)]. A deviation from this was the brain-heart extract medium treated with 0.1% by volume of Tween 80.
# (§3) The mycobacterial strains used were obtained from the DSM (German Collection of Microorganisms, Braunschweig). They were incubated at 37° C. in a humid chamber.
# (§4) The MICs were read off after 2-4 days when the preparation-free controls had become cloudy as a result of growth.
# [2] = system: Mycobacterium smegmatis DSM 43061; test: as above; conditions: Mycolicibacterium smegmatis, DSM43061
# Method: as §2, §3, §4
# [3] = Psdm. Bonn, 37° C., about 20 hours, read-out: MIC
# [4] = Staph. 9TV, 37° C., about 20 hours, read-out: MIC
# [5] = E. coli Neumann, 37° C., about 20 hours, read-out: MIC
# [6] = Klebs. 57 USA, 37° C., about 20 hours, read-out: MIC
# [7] = DSM 43465, brain-heart extract medium with 0.1% Tween 80, 37° C., 2-4 days, read-out: MIC
# [8] = DSM 43061, brain-heart extract medium with 0.1% Tween 80, 37° C., 2-4 days, read-out: MIC
MIC (Psdm. Bonn; [3]) [µg/mL],MIC (E. coli Neumann; [5]) [µg/mL],MIC (Klebs. 57 USA; [6]) [µg/mL],SMILES,MIC (Staph. 25701) [µg/mL],MIC (Staph. 48N) [µg/mL],MIC (Staph. 9TV; [4]) [µg/mL],MIC (Staph. 133) [µg/mL],MIC (Staph. 9TV; 20 h) [µg/mL],MIC [1] [µg/mL],MIC [2] [µg/mL],MIC (Psdm. Bonn; 20 h) [µg/mL],MIC (E. coli Neumann; 20 h) [µg/mL],MIC (Klebs. 57 USA; 20 h) [µg/mL],"MIC [1, 7] [µg/mL]","MIC [2, 8] [µg/mL]"
> 64,> 64,> 64,CC(=O)NC[C@H]1CN(c2ccc3nc(C)sc3n2)C(=O)O1 [Example 14],4,8,2,4,,,,,,,,
,,,"CC(=O)NCC1CN(c2cnc3c(c2)oc(=O)n3C)C(=O)O1 (stereo not shown) [Example 10, 5-Acetylaminomethyl-3-(3-methyloxazolo[4,5-b]-pyridin-2(3H)-on-6yl)oxazolidin-2-one]",8,8,4,,,,,> 64,> 64,> 64,4,4
> 64,> 64,> 64,COC(=O)NCC1CN(c2cnc3c(c2)oc(=O)n3C)C(=O)O1 (racemic) [Example 13],8,8,4,8,,,,,,,8,8
,,,"[H]/N=C(/N)N[C@H]1[C@H](O)[C@@H](O)[C@H](O[C@@H]2O[C@@H](C)[C@](O)(C=O)[C@H]2O[C@@H]2O[C@@H](CO)[C@H](O)[C@@H](O)[C@@H]2NC)[C@@H](N/C(N)=N\[H])[C@@H]1O [Streptomycin, reference compound]",,,,,,4,4,,,,,
,,,"NNC(=O)c1ccncc1 [Isoniazide, reference compound]",,,,,,,,,,,1,4
,,,Cn1c(=O)oc2cc(N3CC(CNC(=O)C4CC4)OC3=O)cnc21 (racemic) [Example 11],8,8,4,8,,,,> 64,> 64,> 64,4,8

SMILES,MIC (Psdm. Bonn; [3]) [µg/mL],MIC (E. coli Neumann; [5]) [µg/mL],MIC (Klebs. 57 USA; [6]) [µg/mL],MIC (Staph. 25701) [µg/mL],MIC (Staph. 48N) [µg/mL],MIC (Staph. 9TV; [4]) [µg/mL],MIC (Staph. 133) [µg/mL],MIC (Staph. 9TV; 20 h) [µg/mL],MIC [1] [µg/mL],MIC [2] [µg/mL],MIC (Psdm. Bonn; 20 h) [µg/mL],MIC (E. coli Neumann; 20 h) [µg/mL],MIC (Klebs. 57 USA; 20 h) [µg/mL],"MIC [1, 7] [µg/mL]","MIC [2, 8] [µg/mL]"
CCC(=O)NCC1CN(c2cnc3c(c2)oc(=O)n3C)C(=O)O1 (racemic) [Example 12],> 64,> 64,> 64,8,8,,8,4,4,4,,,,,
